Laboratory results reported in ChEMBL document CHEMBL4680069, “Itaconate is a covalent inhibitor of the Mycobacterium tuberculosis isocitrate lyase” (RSC Med Chem, 2021).
Calls of active or inactive are those of the source. No cut-off for these calls is given here.

Experiments:
[1] = Binding affinity to N-terminal polyhis-tagged Mycobacterium tuberculosis ICL1 C191S mutant expressed in Escherichia coli BL21 (DE3) in presence of MgCl2 by NMR binding analysis
[2] = test system: Mycobacterium tuberculosis; experiment: Binding affinity to N-terminal polyhis-tagged Mycobacterium tuberculosis ICL1 C191S mutant expressed in Escherichia coli BL21 (DE3) assessed as compound-protein covalent adduct formation by measuring molecular mass at 1 mM after 12 hrs in presence of MgCl2 by LC-MS analysis

Question: With C=C(CC(=O)O)C(=O)O [ITACONATE] as the compound, how does the Kd [1] read?
Answer: Its Kd is 155 µM.

Question: What about the Activity [2] of the same compound?
Answer: The Activity was “Active”.
